Results as given in ChEMBL document CHEMBL1147585, “Potent imidazole and triazole CB1 receptor antagonists related to SR141716” (Bioorg Med Chem Lett, 2004).

Target: T1, Cannabinoid receptor 1 (Homo sapiens, UniProt P21554)
Assay: Evaluated for binding affinity towards human Cannabinoid receptor 1 at a concentration of 20 uM

T1 sequence (P21554 whole entry): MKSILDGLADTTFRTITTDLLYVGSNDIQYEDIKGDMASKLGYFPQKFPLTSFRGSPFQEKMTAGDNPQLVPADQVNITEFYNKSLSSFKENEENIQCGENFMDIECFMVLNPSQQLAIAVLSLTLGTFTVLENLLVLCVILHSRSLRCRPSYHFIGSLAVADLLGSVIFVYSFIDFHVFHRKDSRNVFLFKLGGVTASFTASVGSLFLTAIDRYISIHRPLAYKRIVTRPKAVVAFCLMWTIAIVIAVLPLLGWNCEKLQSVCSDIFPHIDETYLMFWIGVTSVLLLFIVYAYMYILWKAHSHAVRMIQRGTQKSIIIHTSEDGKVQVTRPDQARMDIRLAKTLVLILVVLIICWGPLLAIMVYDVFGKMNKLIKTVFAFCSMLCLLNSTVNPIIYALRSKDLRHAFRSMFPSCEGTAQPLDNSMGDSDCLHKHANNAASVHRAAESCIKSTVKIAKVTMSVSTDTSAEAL

Row | Compound | inhibition [%]
1 | CN(C)CCNC(=O)c1cn(-c2ccc(Cl)cc2)c(-c2ccc(Cl)cc2Cl)n1 | 48
2 | Cc1c(C(=O)NCCN(C)C)nn(-c2ccc(Cl)cc2Cl)c1-c1ccc(Cl)cc1 | 70
3 | Cc1c(C(=O)NCCO)nn(-c2ccc(Cl)cc2Cl)c1-c1ccc(Cl)cc1 | 69

Second part, the compound after the results:

Row | inhibition [%] | Compound
4 | 43 | O=C(NN1CCCCCC1)c1nc(-c2ccc(Cl)cc2)n(-c2ccc(Cl)cc2Cl)n1
5 | 49 | CN(C)CCNC(=O)c1nc(-c2ccc(Cl)cc2Cl)n(-c2ccc(Cl)cc2)n1

Target: T1, Cannabinoid receptor 1
Assay: Evaluated for binding affinity towards human Cannabinoid receptor 1

Row | Compound | Ki [nM]
6 | Cc1c(C(=O)NN2CCCCCC2)nn(-c2ccc(Cl)cc2Cl)c1-c1ccc(Cl)cc1 | 14
7 | Cc1c(C(=O)NC(C)c2ccc(Cl)cc2)nc(-c2ccc(Cl)cc2Cl)n1-c1ccc(Cl)cc1 (configuration not stated) | 33
8 | Cc1c(C(=O)Nc2ccncc2)nn(-c2ccc(Cl)cc2Cl)c1-c1ccc(Cl)cc1 | 85
9 | Cc1c(C(=O)NC(C)C(C)C)nn(-c2ccc(Cl)cc2Cl)c1-c1ccc(Cl)cc1 (configuration not stated) | 41
10 | Cc1c(C(=O)NCCc2ccc(F)cc2)nn(-c2ccc(Cl)cc2Cl)c1-c1ccc(Cl)cc1 | 91
11 | CC(NC(=O)c1nc(-c2ccc(Cl)cc2Cl)n(-c2ccc(Cl)cc2)n1)c1ccc(Cl)cc1 (configuration not stated) | 66
12 | O=C(NC1CCCCC1)c1cn(-c2ccc(Cl)cc2)c(-c2ccc(Cl)cc2Cl)n1 | 48
13 | O=C(NN1CCCCCC1)c1cn(-c2ccc(Cl)cc2)c(-c2ccc(Cl)cc2Cl)n1 | 78
14 | O=C(c1nc(-c2ccc(Cl)cc2)n(-c2ccc(Cl)cc2Cl)n1)N1CCN(c2cccc(C(F)(F)F)c2)CC1 | 32

The next lines start with the values.

Row | Ki [nM] | Compound
15 | 770 | C#Cc1c(C(=O)NN2CC3CCCC3C2)nc(-c2ccc(Cl)cc2Cl)n1-c1ccc(Cl)cc1 (configuration not stated)
16 | 137 | O=C(NN1CC2CCCC2C1)c1nc(-c2ccc(Cl)cc2Cl)n(-c2ccc(Cl)cc2)n1 (configuration not stated)
17 | 85 | O=C(NN1CCCCC1)c1cn(-c2ccc(Cl)cc2)c(-c2ccc(Cl)cc2Cl)n1
18 | 42 | Cc1c(C(=O)NC2CCCCC2)nn(-c2ccc(Cl)cc2Cl)c1-c1ccc(Cl)cc1
19 | 270 | COc1cc(Cl)ccc1-c1nc(C(=O)NN2CC3CCCC3C2)nn1-c1ccc(Cl)cc1Cl (configuration not stated)
20 | 9 | N#Cc1c(C(=O)NN2CC3CCCC3C2)nc(-c2ccc(Cl)cc2Cl)n1-c1ccc(Cl)cc1 (configuration not stated)
21 | 101 | O=C(NC1CCc2ccccc21)c1nc(-c2ccc(Cl)cc2Cl)n(-c2ccc(Cl)cc2)n1 (configuration not stated)
22 | 5 | Cc1c(C(=O)NN2CC3CCCC3C2)nn(-c2ccc(Cl)cc2Cl)c1-c1ccc(Cl)cc1 (configuration not stated)
23 | 100 | Cc1c(C(=O)N(C)C2CCCCC2)nn(-c2ccc(Cl)cc2Cl)c1-c1ccc(Cl)cc1
24 | 66 | O=C(NN1CC2CCCC2C1)c1cn(-c2ccc(Cl)cc2)c(-c2ccc(Cl)cc2Cl)n1 (configuration not stated)
25 | 11 | O=C(NN1CC2CCCC2C1)c1nc(-c2ccc(Cl)cc2Cl)n(-c2ccc(Cl)cc2)c1Br (configuration not stated)
26 | 29 | O=C(NC1CCN(Cc2ccccc2)C1)c1nc(-c2ccc(Cl)cc2Cl)n(-c2ccc(Cl)cc2)n1 (configuration not stated)
27 | 94 | CC1CCC(NC(=O)c2nc(-c3ccc(Cl)cc3Cl)n(-c3ccc(Cl)cc3)n2)CC1 (configuration not stated)
